In US10173971B2, “Picolinamides with fungicidal activity” (DOW AGROSCIENCES LLC, priority 2014, dated 2019):
Like-named read-outs stand apart in the source and are kept apart here.

Experiments:
Puccinia triticina = test: Fungicidal activity: wheat brown rust (PUCCRT), wheat seedlings, booth sprayer to run-off or track spray; assay type: in vivo; conditions: for pest or weed control at 121.5 g/ha: Low-Volume Cereal Activity at 121.5 g/H; for pest or weed control at 100 ppm: High-Volume Cereal Activity at 100 ppm
Zymoseptoria tritici = test: Fungicidal activity: leaf blotch of wheat (SEPTTR), wheat seedlings, booth sprayer to run-off or track spray; assay type: in vivo; conditions: for pest or weed control at 121.5 g/ha: Low-Volume Cereal Activity at 121.5 g/H; for pest or weed control at 100 ppm: High-Volume Cereal Activity at 100 ppm
[1] = 24 h, 1 Day Protectant, read-out: PUCCRT 1DP
[2] = 72 h, 3 Day Curative, read-out: PUCCRT 3DC
[3] = 24 h, 1 Day Protectant, read-out: SEPTTR 1DP
[4] = 72 h, 3 Day Curative, read-out: SEPTTR 3DC
[5] = 3DC (Day Curative), read-out: PUCCRT 3DC

| SMILES | pest or weed control at 121.5 g/ha (Puccinia triticina; [1]) [%] | pest or weed control at 121.5 g/ha (Puccinia triticina; [2]) [%] | pest or weed control at 121.5 g/ha (Zymoseptoria tritici; [3]) [%] | pest or weed control at 121.5 g/ha (Zymoseptoria tritici; [4]) [%] | pest or weed control at 100 ppm (Puccinia triticina; [1]) [%] | pest or weed control at 100 ppm (Puccinia triticina; [5]) [%] | pest or weed control at 100 ppm (Zymoseptoria tritici; [3]) [%] | pest or weed control at 100 ppm (Zymoseptoria tritici; 3DC (Day Curative), read-out: SEPTTR 3DC) [%] |
| --- | --- | --- | --- | --- | --- | --- | --- | --- |
| COc1ccnc(C(=O)N[C@@H](C)C(=O)OC(C)C(Cc2ccc(F)cc2)Cc2ccc(F)cc2)c1OCOC(C)=O (stereo partly drawn) [compound 268] | 80 to 100 | 80 to 100 | 0 to 80 | 0 to 80 |  |  |  |  |
| C=C(C)[C@@H](Cc1ccccc1)[C@H](C)OC(=O)[C@H](C)NC(=O)c1nccc(OC)c1OCOC(C)=O [compound 255] | 80 to 100 | 80 to 100 | 0 to 80 | 80 to 100 |  |  |  |  |
| COc1ccnc(C(=O)N[C@@H](C)C(=O)O[C@@H](C)[C@H](Cc2ccccc2)c2ccccc2)c1OC(C)=O [compound 196] | 80 to 100 | 0 to 80 | 80 to 100 | 80 to 100 |  |  |  |  |
| COc1ccnc(C(=O)N[C@@H](C)C(=O)O[C@@H](C)[C@@H](COCc2ccccc2)Cc2ccc(F)cc2)c1OC(C)=O [compound 228] | 0 to 80 | 0 to 80 | 80 to 100 | 0 to 80 |  |  |  |  |
| COc1ccnc(C(=O)N[C@@H](C)C(=O)O[C@@H](C)[C@@H](COCCC(C)C)Cc2ccccc2)c1OCOC(C)=O [compound 252] | 80 to 100 | 80 to 100 | 80 to 100 | 80 to 100 |  |  |  |  |
| CC[C@H](CCCc1ccccc1)[C@@H](CC(C)C)[C@H](C)OC(=O)C(C)NC(=O)c1nccc(OC)c1O (stereo partly drawn) [compound 101] |  |  |  |  | 80 to 100 | 0 to 80 | 80 to 100 |  |
| COC(=O)[C@@H](Cc1ccccc1)[C@H](C)OC(=O)[C@H](C)NC(=O)c1nccc(OC)c1OCOC(C)=O [compound 185] | 0 to 80 | 0 to 80 | 0 to 80 |  |  |  |  |  |
| CC[C@@H](Oc1ccccc1)[C@@H](Cc1ccccc1)[C@H](C)OC(=O)[C@H](C)NC(=O)c1nccc(OC)c1OC(C)=O [compound 194] | 80 to 100 | 0 to 80 | 80 to 100 | 80 to 100 |  |  |  |  |
| CC[C@H](Cc1ccc(C(F)(F)F)cc1)[C@@H](Cc1ccc(F)cc1)[C@H](C)OC(=O)[C@H](COC)NC(=O)c1nccc(OC)c1OC(C)=O [compound 181] | 80 to 100 | 0 to 80 | 0 to 80 | 0 to 80 |  |  |  |  |
| COc1ccnc(C(=O)N[C@@H](C)C(=O)O[C@@H](C)[C@H](Cc2ccc(F)cc2)c2ccccc2)c1OCOC(=O)C(C)C [compound 223] | 80 to 100 | 0 to 80 | 80 to 100 | 80 to 100 |  |  |  |  |
| COc1ccnc(C(=O)N[C@@H](C)C(=O)O[C@@H](C)[C@H](Cc2ccc(F)cc2)c2ccccc2)c1O [compound 129] |  |  |  |  | 80 to 100 | 0 to 80 | 80 to 100 | 0 to 80 |
| COC[C@@H](Cc1ccc(F)cc1)[C@H](C)OC(=O)[C@H](C)NC(=O)c1nccc(OC)c1OCOC(C)=O [compound 243] | 80 to 100 | 80 to 100 | 0 to 80 | 0 to 80 |  |  |  |  |
| COc1ccnc(C(=O)N[C@@H](C)C(=O)O[C@@H](C)[C@H](Cc2ccc(Cl)c(Cl)c2)c2ccccc2)c1OCOC(=O)C(C)C [compound 219] | 0 to 80 | 0 to 80 | 0 to 80 | 0 to 80 |  |  |  |  |
| COc1ccnc(C(=O)N[C@@H](C)C(=O)O[C@@H](C)[C@H](Cc2ccc(Cl)cc2)c2ccccc2)c1OCOC(=O)C(C)C [compound 204] | 0 to 80 | 0 to 80 | 80 to 100 | 80 to 100 |  |  |  |  |
